Source: patent US6160004A, “C-10 carbon-substituted artemisinin-like trioxane compounds having antimalarial, antiproliferative and antitumor activities” (priority 1998, dated 2000)

Key:
RPMI-8226 = assay: NCI 60 cell line panel screening assay (SRB), RPMI-8226; format: cell-based; conditions: Homo sapiens
60 cell line panel = assay: NCI 60 cell line panel, whole panel
OVCAR-8 = assay: cells; format: cell-based; conditions: Homo sapiens
UACC-257 = assay: cells; format: cell-based; conditions: Homo sapiens, UACC-257, 48 h
U251 = assay: cells; format: cell-based; conditions: Homo sapiens, U-251, U251, CNS cancer, 48 h
CAKI-1 = assay: NCI 60 cell line panel screening assay (SRB), CAKI-1; format: cell-based; conditions: Homo sapiens
K-562 = assay: cells; format: cell-based; conditions: Homo sapiens
MOLT-4 = conditions: MOLT-4, FIG. 6
RXF 393 = assay: cells; format: cell-based; conditions: Homo sapiens, RXF 393, renal cancer, 48 h
SR = assay: cells; format: cell-based; conditions: Homo sapiens, leukemia, 48 h
HCT-15 = assay: cells; format: cell-based; conditions: Homo sapiens, HCT-15, colon cancer, 48 h
NCI-H23 = assay: cells; format: cell-based; conditions: Homo sapiens; NCI-H23, non-small cell lung cancer, 48 h; read-out: Log10 GI50 (converted)
CCRF-CEM = assay: cells; format: cell-based; conditions: Homo sapiens, 48 h
MCF7 = assay: cells; format: cell-based; conditions: Homo sapiens; MCF7, breast cancer, 48 h; read-out: Log10 LC50 (converted)
OVCAR-3 = assay: cells; format: cell-based; conditions: Homo sapiens
HOP-62 = assay: cells; format: cell-based; conditions: Homo sapiens, HOP-62, non-small cell lung cancer, 48 h
OVCAR-5 = assay: cells; format: cell-based; conditions: Homo sapiens
786-0 = assay: cells; format: cell-based; conditions: Homo sapiens, 786-0, renal cancer, 48 h
SN12C = assay: NCI 60 cell line panel screening assay (SRB), SN12C; format: cell-based; conditions: Homo sapiens, renal cancer, 48 h
COLO 205 = assay: NCI 60 cell line panel screening assay (SRB), COLO 205; format: cell-based; conditions: Homo sapiens
M14 = assay: NCI 60 cell line panel screening assay (SRB), M14; conditions: Homo sapiens, M14, 48 h
SK-MEL-28 = assay: cells; format: cell-based; conditions: Homo sapiens, SK-MEL-28, melanoma, 48 h
SNB-75 = assay: cells; format: cell-based; conditions: Homo sapiens; SNB-75, CNS cancer, 48 h; read-out: Log10 LC50 (converted)
KM12 = assay: cells; format: cell-based; conditions: Homo sapiens, KM12, colon cancer, 48 h
A498 = assay: cells; format: cell-based; conditions: Homo sapiens, A498, renal cancer, 48 h
HT29 = assay: cells; format: cell-based; conditions: Homo sapiens, HT-29, HT29, colon cancer, 48 h
HS 578T = assay: cells; format: cell-based; conditions: Homo sapiens, HS 578T, breast cancer, 48 h
BT-549 = assay: cells; format: cell-based; conditions: Homo sapiens, BT-549, breast cancer, 48 h
DU-145 = assay: cells; format: cell-based; conditions: Homo sapiens, DU-145, 48 h
HOP-92 = assay: cells; format: cell-based; conditions: Homo sapiens, HOP-92, non-small cell lung cancer, 48 h
PC-3 = assay: cells; format: cell-based; conditions: Homo sapiens, PC-3, prostate cancer, 48 h
[1] = read-out: Log10 GI50 (converted)
[2] = read-out: Log10 LC50 (converted)

CC1CCC2C(C)C(CC(=O)c3cccc(C(=O)CC4OC5OC6(C)CCC7C(C)CCC(C4C)C57OO6)c3)OC3OC4(C)CCC1C32OO4 (stereo not shown) [Dimer 39]
> 100 µM: CC50 (RPMI-8226; RPMI-8226, 48 h, read-out: Log10 LC50 (converted)) | GI50 (RPMI-8226; RPMI-8226, leukemia, 48 h, read-out: Log10 GI50 (converted)) | IC (TGI) (RPMI-8226; RPMI-8226, leukemia, 48 h, read-out: Log10 TGI) | IC (TGI) (OVCAR-8; OVCAR-8, 48 h, read-out: Log10 TGI) | GI50 (OVCAR-8; OVCAR-8, ovarian cancer, 48 h, read-out: Log10 GI50 (converted)) | CC50 (OVCAR-8; OVCAR-8, ovarian cancer, 48 h, read-out: Log10 LC50 (converted)) | IC (TGI) (UACC-257; read-out: Log10 TGI) | GI50 (UACC-257; [1]) | CC50 (UACC-257; [2]) | GI50 (U251; [1]) | CC50 (U251; [2]) | CC50 (CAKI-1; CAKI-1, 48 h, read-out: Log10 LC50 (converted)) | GI50 (CAKI-1; CAKI-1, renal cancer, 48 h, read-out: Log10 GI50 (converted)) | IC (TGI) (CAKI-1; CAKI-1, renal cancer, 48 h, read-out: Log10 TGI (converted)) | CC50 (K-562; K562, 48 h, read-out: Log10 LC50 (converted)) | GI50 (K-562; K562, K-562, leukemia, 48 h, read-out: Log10 GI50 (converted)) | GI50 (RXF 393; [1]) | CC50 (RXF 393; [2]) | IC (TGI) (RXF 393; read-out: Log10 TGI) | GI50 (SR; [1]) | CC50 (SR; [2]) | IC (TGI) (SR; read-out: Log10 TGI) | GI50 (HCT-15; [1]) | CC50 (HCT-15; [2]) | GI50 (NCI-H23) | GI50 (CCRF-CEM; [1]) | CC50 (CCRF-CEM; [2]) | IC (TGI) (CCRF-CEM; leukemia, read-out: Log10 TGI) | CC50 (MCF7) | IC (TGI) (OVCAR-3; OVCAR-3, 48 h, read-out: Log10 TGI) | GI50 (OVCAR-3; OVCAR-3, ovarian cancer, 48 h, read-out: Log10 GI50 (converted)) | CC50 (OVCAR-3; OVCAR-3, ovarian cancer, 48 h, read-out: Log10 LC50 (converted)) | GI50 (HOP-62; [1]) | LC50 (HOP-62; [2]) | IC (TGI) (OVCAR-5; OVCAR-5, 48 h, read-out: Log10 TGI) | CC50 (OVCAR-5; OVCAR-5, ovarian cancer, 48 h, read-out: Log10 LC50 (converted)) | GI50 (786-0; [1]) | CC50 (786-0; [2]) | IC (TGI) (786-0; read-out: Log10 TGI) | GI50 (SN12C; [1]) | CC50 (SN12C; [2]) | IC (TGI) (SN12C; read-out: Log10 TGI) | CC50 (COLO 205; COLO 205, 48 h, read-out: Log10 LC50 (converted)) | GI50 (COLO 205; COLO 205, colon cancer, 48 h, read-out: Log10 GI50 (converted)) | GI50 (M14; [1]) | CC50 (M14; [2]) | IC (TGI) (M14; read-out: Log10 TGI) | GI50 (SK-MEL-28; [1]) | CC50 (SK-MEL-28; [2]) | IC (TGI) (SK-MEL-28; read-out: Log10 TGI) | CC50 (SNB-75) | GI50 (KM12; [1]) | CC50 (KM12; [2]) | CC50 (A498; [2]) | IC (TGI) (A498; read-out: Log10 TGI) | GI50 (HT29; [1]) | CC50 (HT29; [2]) | GI50 (HS 578T; [1]) | CC50 (HS 578T; [2]) | GI50 (BT-549; [1]) | CC50 (BT-549; [2]) | GI50 (DU-145; [1]) | CC50 (DU-145; [2]) | IC (TGI) (DU-145; read-out: Log10 TGI) | GI50 (HOP-92; [1]) | CC50 (HOP-92; [2]) | GI50 (PC-3; [1]) | LC50 (PC-3; [2])
0.00: Delta of Log10 TGI (60 cell line panel; panel) | Range of Log10 TGI (60 cell line panel; panel)
greater than 10^-4 M: concentration for cytostasis (PG 0) (MOLT-4)
100 µM: IC (TGI) (60 cell line panel; 60 cell, read-out: MG MID of Log10 TGI) | CC50 (60 cell line panel; Homo sapiens, 60 cell, read-out: MG MID of Log10 LC50 (converted))
